Measured values from patent US11034725B2, “Compositions and methods for treating cardiovascular disease” (Genentech, Inc., priority 2016, dated 2021).
Like-named read-outs stand apart in the source and are kept apart here. Bridge positions count the residues as written; N and C are the ends. Square brackets hold non-standard residues; d marks the D form. Peptide text beside a SMILES is read from it. * marks the point of attachment. Pentanoyl = CCCCC(=O)*

Assays:
His-EGF(A)-Fc = His-EGF(A)-Fc TR-FRET counterscreen
PCSK9 = PCSK9 (Homo sapiens, UniProt Q8NBP7); assay: PCSK9/EGF(A) TR-FRET binding assay; conditions: TR-FRET, read-out: PCSK9/EGF(A) IC50
Experimental: The former was based on a TF-FRET assay to measure the association of the EGF(A) domain of the LDLR to PCSK9 (“PCSK9/EGF(A) binding assay”) whilst the latter was based on a TR-FRET assay to measure binding of Ab20 to PCSK9Δhelix (“PCSK9Δhelix/Ab20 binding assay”).
The ability of compounds to inhibit binding to PCSK9 was evaluated with a panel of time-resolved fluorescence resonance energy transfer (TR-FRET) binding assays. […] The PCSK9Δhelix/Ab20 binding assay evaluated the ability of compounds to compete with Ab20 for binding to the N-terminal groove region in a His-tagged, PCSK9Δhelix construct. […] Signal generation in the PCSK9 binding assays was dependent upon the binding interaction to bring into close proximity the His-tag on the PCSK9 and the Fc-tag on the ligand. Anti-His-APC was bound to the His-tag, and anti-Fc-europium was bound to the Fc-tag. When these two antibodies were in close proximity and were irradiated with light at 340 nm, the europium was excited and emitted energy at 615 nm. This energy was taken up by the APC and was emitted as light at 665 nm. Compounds that competed with the ligand reduced the energy transfer and thus the emission at 665 nm. In the His-EGFA-Fc molecule in the counterscreen, the two tags were always in close proximity, thus any reduction in emission at 665 nm was due to interference with the detection system.
Compounds were solubilized and dilutions were prepared in DMSO. […] The plate was centrifuged to mix the well contents and allowed to incubate for 30 min. […] The TR-FRET signal was read on a ViewLux reader (PerkinElmer) with excitation at 340 nm and emission at 615 and 665 nm with a 50-μs time delay between excitation and measurement of emission. The TR-FRET ratio was calculated as the fluorescence emission at 665 nm divided by the fluorescence emission at 615 nm. The normalized TR-FRET ratios were plotted as a function of the compound concentrations, and the IC50 values were determined using a 4-parameter logistic regression.
In black 1536-well assay plates (MaKO, Aurora® Microplates, Whitefish, Mont.), 40 nL of peptide in DMSO were preincubated with 2 μL His-tagged PCSK9 plus anti-His-allophycocyanin in assay buffer (50 mM Tris-HCl, pH 7.5, 150 mM NaCl, 2 mM CaCl2, 0.01% Tween®-20, 0.1% bovine gamma globulins, and protease inhibitor cocktail) for 30 min. Then 2 μL of Fc-tagged ligand and anti-Fc-europium in assay buffer were added and allowed to incubate for 2 h.

PCSK9Δhelix = target: T1, PCSK9Δhelix (Homo sapiens, UniProt Q8NBP7); assay: PCSK9Δhelix/Ab20 TR-FRET binding assay; conditions: TR-FRET, read-out: PCSK9Δhelix/Ab20 IC50
T1 construct: Human PCSK9 construct M1-Q692 with an engineered TEV site (residue deletion Y166, R167); made in house; host or cells: CHO

[1] = TR-FRET counterscreen, Table 8D, * = some inhibition at highest concentrations, not sufficient to fit an IC50
[2] = Table 8D, disulfide-cyclized extension peptides

Chain of PCSK9 (Q8NBP7 153-692): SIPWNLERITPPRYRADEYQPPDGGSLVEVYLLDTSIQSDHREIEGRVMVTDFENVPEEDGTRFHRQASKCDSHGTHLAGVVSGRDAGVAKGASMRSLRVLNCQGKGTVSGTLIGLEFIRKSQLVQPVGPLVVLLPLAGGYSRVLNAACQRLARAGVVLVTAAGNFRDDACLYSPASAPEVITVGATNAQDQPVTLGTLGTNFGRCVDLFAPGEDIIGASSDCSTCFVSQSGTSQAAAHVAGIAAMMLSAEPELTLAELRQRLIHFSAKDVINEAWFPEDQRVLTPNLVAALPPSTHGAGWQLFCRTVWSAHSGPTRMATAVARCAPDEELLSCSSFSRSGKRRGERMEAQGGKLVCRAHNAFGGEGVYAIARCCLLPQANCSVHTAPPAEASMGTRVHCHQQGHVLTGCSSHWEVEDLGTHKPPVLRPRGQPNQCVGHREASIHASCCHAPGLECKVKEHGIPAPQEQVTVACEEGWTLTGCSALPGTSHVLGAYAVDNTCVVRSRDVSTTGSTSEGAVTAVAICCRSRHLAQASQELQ
Chain of PCSK9 (Q8NBP7 31-152 partner limits assumed): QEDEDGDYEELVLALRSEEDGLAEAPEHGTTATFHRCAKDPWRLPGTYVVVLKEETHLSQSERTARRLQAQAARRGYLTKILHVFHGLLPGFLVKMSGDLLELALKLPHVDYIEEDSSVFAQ
T1 sequence (Q8NBP7 with tags, fused parts or gaps limits assumed): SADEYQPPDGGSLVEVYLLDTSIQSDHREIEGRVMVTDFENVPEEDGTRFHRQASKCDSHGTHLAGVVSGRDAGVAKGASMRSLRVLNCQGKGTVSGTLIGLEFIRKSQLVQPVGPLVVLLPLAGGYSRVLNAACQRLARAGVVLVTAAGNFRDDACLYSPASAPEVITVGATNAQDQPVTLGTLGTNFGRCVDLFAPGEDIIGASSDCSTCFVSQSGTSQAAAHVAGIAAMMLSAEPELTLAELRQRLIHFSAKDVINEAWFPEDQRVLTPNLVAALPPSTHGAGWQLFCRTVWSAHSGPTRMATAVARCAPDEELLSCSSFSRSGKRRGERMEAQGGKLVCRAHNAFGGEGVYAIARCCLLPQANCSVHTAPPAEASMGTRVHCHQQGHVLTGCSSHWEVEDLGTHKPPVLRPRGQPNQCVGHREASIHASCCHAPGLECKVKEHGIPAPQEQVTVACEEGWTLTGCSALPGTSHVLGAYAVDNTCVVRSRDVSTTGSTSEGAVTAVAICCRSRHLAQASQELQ
T1 sequence (Q8NBP7 31-152 partner limits assumed): as the sequence (Q8NBP7 31-152 partner limits assumed) above

Row | Structure (SMILES) | IC50 (His-EGF(A)-Fc; [1]) [µM] | IC50 (PCSK9; Example 7) [µM] | IC50 (PCSK9Δhelix; [2]) [µM] | IC50 (PCSK9; [2]) [µM] | IC50 (His-EGF(A)-Fc; counterscreen, Example 7) [µM] | IC50 (PCSK9Δhelix; Example 7) [µM]
1 | CC[C@H](C)[C@@H]1NC(=O)[C@H](CCCNC(=N)N)NC(=O)[C@H](C)NC(=O)[C@H](CC(C)C)NC(=O)[C@H](CC(N)=O)NC(=O)[C@H](Cc2c[nH]c3ccccc23)NC(=O)[C@H](CC(C)C)NC(=O)[C@@H](NC(=O)[C@H](Cc2ccccc2)NC(C)=O)CSSC[C@@H](C(=O)N[C@@H](Cc2c[nH]c3ccccc23)C(=O)N[C@@H](Cc2ccccc2)C(N)=O)NC(=O)[C@H](CCC(N)=O)NC(=O)[C@H](CO)NC(=O)CNC1=O [Compound 88] (Ac-FCLWNLARIGSQCWF-NH2; disulfide 2-13) | > 50 | 17.9 | 7.46 |  |  | 
2 | CC[C@H](C)[C@@H]1NC(=O)[C@H](CCCNC(=N)N)NC(=O)[C@H](CCCCN)NC(=O)[C@H](CC(C)C)NC(=O)[C@H](CC(N)=O)NC(=O)[C@H](Cc2c[nH]c3ccccc23)NC(=O)[C@H](CC(C)C)NC(=O)[C@@H](NC(=O)[C@@H](N)Cc2c[nH]c3ccccc23)CSSC[C@@H](C(=O)N[C@@H](Cc2c[nH]c3ccccc23)C(=O)N[C@@H](Cc2ccccc2)C(N)=O)NC(=O)[C@H](CCC(N)=O)NC(=O)[C@H](CO)NC(=O)CNC1=O [Compound 89] (H-WCLWNLKRIGSQCWF-NH2; disulfide 2-13) | 38.4 |  | 2.98 | 6.9 |  | 
3 | CC[C@H](C)[C@@H]1NC(=O)[C@H](CCCNC(=N)N)NC(=O)[C@H](CCCCN)NC(=O)[C@H](CC(C)C)NC(=O)[C@H](CC(N)=O)NC(=O)[C@H](Cc2c[nH]c3ccccc23)NC(=O)[C@H](CC(C)C)NC(=O)[C@@H](NC(=O)[C@H](Cc2ccccc2)NC(C)=O)CSSC[C@@H](C(=O)N[C@@H](CCC(=O)O)C(=O)N[C@@H](Cc2ccc(O)cc2)C(N)=O)NC(=O)[C@H](CCC(N)=O)NC(=O)[C@H](CO)NC(=O)CNC1=O [Compound 95] (Ac-FCLWNLKRIGSQCEY-NH2; disulfide 2-13) | > 50 |  | 12.7 | > 50 |  | 
4 | CC[C@H](C)[C@@H]1NC(=O)[C@H](CCCNC(=N)N)NC(=O)[C@H](CCC(N)=O)NC(=O)[C@H](CC(C)C)NC(=O)[C@H](CC(N)=O)NC(=O)[C@H](Cc2c[nH]c3ccccc23)NC(=O)[C@@H]2CCCN2C(=O)[C@H](CC(C)C)NC(=O)[C@H](CCCNC(=N)N)NC(=O)[C@@H](NC(C)=O)CSSC[C@@H](C(N)=O)NC(=O)[C@H]2CCCN2C(=O)[C@H](CC(C)C)NC(=O)CNC1=O [Compound 99] (Ac-CRLPWNLQRIGL[dP]C-NH2; disulfide 1-14) | > 50 |  | 1.3 | > 50 |  | 
5 | CC[C@H](C)[C@@H]1NC(=O)[C@H](CCCNC(=N)N)NC(=O)[C@H](CCC(N)=O)NC(=O)[C@H](CC(C)C)NC(=O)[C@H](CC(N)=O)NC(=O)[C@H](Cc2c[nH]c3ccccc23)NC(=O)[C@@H]2CCCN2C(=O)[C@H](CC(C)C)NC(=O)[C@H](CCCNC(=N)N)NC(=O)[C@@H](NC(C)=O)CSSC[C@@H](C(N)=O)NC(=O)[C@@H]2CCCN2C(=O)[C@@H](CC(C)C)NC(=O)CNC1=O [Compound 100] (Ac-CRLPWNLQRIG[dL]PC-NH2; disulfide 1-14) | > 50 |  | > 50 | > 50 |  | 
6 | CC[C@@H](C)[C@H]1NC(=O)[C@H](CCCNC(=N)N)NC(=O)[C@H](CCC(N)=O)NC(=O)[C@H](CC(C)C)NC(=O)[C@H](CC(N)=O)NC(=O)[C@H](Cc2c[nH]c3ccccc23)NC(=O)[C@@H]2CCCN2C(=O)[C@H](CC(C)C)NC(=O)[C@H](CCCNC(=N)N)NC(=O)[C@@H](NC(C)=O)CSSC[C@@H](C(N)=O)NC(=O)[C@@H]2CCCN2C(=O)[C@H](CC(C)C)NC(=O)CNC1=O [Compound 101] (Ac-CRLPWNLQR[dI]GLPC-NH2; disulfide 1-14) | > 50 |  | > 50 | > 50 |  | 
7 | CC[C@H](C)[C@@H]1NC(=O)[C@@H](CCCNC(=N)N)NC(=O)[C@H](CCC(N)=O)NC(=O)[C@H](CC(C)C)NC(=O)[C@H](CC(N)=O)NC(=O)[C@H](Cc2c[nH]c3ccccc23)NC(=O)[C@@H]2CCCN2C(=O)[C@H](CC(C)C)NC(=O)[C@H](CCCNC(=N)N)NC(=O)[C@@H](NC(C)=O)CSSC[C@@H](C(N)=O)NC(=O)[C@@H]2CCCN2C(=O)[C@H](CC(C)C)NC(=O)CNC1=O [Compound 102] (Ac-CRLPWNLQ[dR]IGLPC-NH2; disulfide 1-14) | > 50 |  | > 50 | > 50 |  | 
8 | CC[C@H](C)[C@@H]1NC(=O)[C@H](CCCNC(=N)N)NC(=O)[C@@H](CCC(N)=O)NC(=O)[C@H](CC(C)C)NC(=O)[C@H](CC(N)=O)NC(=O)[C@H](Cc2c[nH]c3ccccc23)NC(=O)[C@@H]2CCCN2C(=O)[C@H](CC(C)C)NC(=O)[C@H](CCCNC(=N)N)NC(=O)[C@@H](NC(C)=O)CSSC[C@@H](C(N)=O)NC(=O)[C@@H]2CCCN2C(=O)[C@H](CC(C)C)NC(=O)CNC1=O [Compound 103, Ac-CRLPWNLqRIGLPC-NH2] (Ac-CRLPWNL[dQ]RIGLPC-NH2; disulfide 1-14) | > 50 |  | > 50 | > 50 |  | 
9 | CC[C@H](C)[C@@H]1NC(=O)[C@H](CCCNC(=N)N)NC(=O)[C@H](CCC(N)=O)NC(=O)[C@@H](CC(C)C)NC(=O)[C@H](CC(N)=O)NC(=O)[C@H](Cc2c[nH]c3ccccc23)NC(=O)[C@@H]2CCCN2C(=O)[C@H](CC(C)C)NC(=O)[C@H](CCCNC(=N)N)NC(=O)[C@@H](NC(C)=O)CSSC[C@@H](C(N)=O)NC(=O)[C@@H]2CCCN2C(=O)[C@H](CC(C)C)NC(=O)CNC1=O [Compound 104, Ac-CRLPWNlQRIGLPC-NH2] (Ac-CRLPWN[dL]QRIGLPC-NH2; disulfide 1-14) | > 50 |  | > 50 | > 50 |  | 
10 | CC[C@H](C)[C@@H]1NC(=O)[C@H](CCCNC(=N)N)NC(=O)[C@H](CCC(N)=O)NC(=O)[C@H](CC(C)C)NC(=O)[C@@H](CC(N)=O)NC(=O)[C@H](Cc2c[nH]c3ccccc23)NC(=O)[C@@H]2CCCN2C(=O)[C@H](CC(C)C)NC(=O)[C@H](CCCNC(=N)N)NC(=O)[C@@H](NC(C)=O)CSSC[C@@H](C(N)=O)NC(=O)[C@@H]2CCCN2C(=O)[C@H](CC(C)C)NC(=O)CNC1=O [Compound 105] (Ac-CRLPW[dN]LQRIGLPC-NH2; disulfide 1-14) | > 50 |  | > 50 | > 50 |  | 
11 | CC[C@H](C)[C@@H]1NC(=O)[C@H](CCCNC(=N)N)NC(=O)[C@H](CCC(N)=O)NC(=O)[C@H](CC(C)C)NC(=O)[C@H](CC(N)=O)NC(=O)[C@@H](Cc2c[nH]c3ccccc23)NC(=O)[C@@H]2CCCN2C(=O)[C@H](CC(C)C)NC(=O)[C@H](CCCNC(=N)N)NC(=O)[C@@H](NC(C)=O)CSSC[C@@H](C(N)=O)NC(=O)[C@@H]2CCCN2C(=O)[C@H](CC(C)C)NC(=O)CNC1=O [Compound 106] (Ac-CRLP[dW]NLQRIGLPC-NH2; disulfide 1-14) | > 50 |  | > 50 | > 50 |  | 
12 | CC[C@H](C)[C@@H]1NC(=O)[C@H](CCCNC(=N)N)NC(=O)[C@H](CCC(N)=O)NC(=O)[C@H](CC(C)C)NC(=O)[C@H](CC(N)=O)NC(=O)[C@H](Cc2c[nH]c3ccccc23)NC(=O)[C@H]2CCCN2C(=O)[C@H](CC(C)C)NC(=O)[C@H](CCCNC(=N)N)NC(=O)[C@@H](NC(C)=O)CSSC[C@@H](C(N)=O)NC(=O)[C@@H]2CCCN2C(=O)[C@H](CC(C)C)NC(=O)CNC1=O [Compound 107] (Ac-CRL[dP]WNLQRIGLPC-NH2; disulfide 1-14) | > 50 |  | > 50 | > 50 |  | 
13 | CC[C@H](C)[C@@H]1NC(=O)[C@H](CCCNC(=N)N)NC(=O)[C@H](CCC(N)=O)NC(=O)[C@H](CC(C)C)NC(=O)[C@H](CC(N)=O)NC(=O)[C@H](Cc2c[nH]c3ccccc23)NC(=O)[C@@H]2CCCN2C(=O)[C@@H](CC(C)C)NC(=O)[C@H](CCCNC(=N)N)NC(=O)[C@@H](NC(C)=O)CSSC[C@@H](C(N)=O)NC(=O)[C@@H]2CCCN2C(=O)[C@H](CC(C)C)NC(=O)CNC1=O [Compound 108] (Ac-CR[dL]PWNLQRIGLPC-NH2; disulfide 1-14) | > 50 |  | 28.2 | > 50 |  | 
14 | CC[C@H](C)[C@@H]1NC(=O)[C@H](CCCNC(=N)N)NC(=O)[C@H](CCC(N)=O)NC(=O)[C@H](CC(C)C)NC(=O)[C@H](CC(N)=O)NC(=O)[C@H](Cc2c[nH]c3ccccc23)NC(=O)[C@@H]2CCCN2C(=O)[C@H](CC(C)C)NC(=O)[C@@H](CCCNC(=N)N)NC(=O)[C@@H](NC(C)=O)CSSC[C@@H](C(N)=O)NC(=O)[C@@H]2CCCN2C(=O)[C@H](CC(C)C)NC(=O)CNC1=O [Compound 109] (Ac-C[dR]LPWNLQRIGLPC-NH2; disulfide 1-14) | > 50 |  | 1.67 | > 50 |  | 
15 | CCCCC(=O)N[C@@H](Cc1c[nH]c2ccccc12)C(=O)N[C@@H](CC(N)=O)C(=O)N[C@@H](CC(C)C)C(=O)N[C@H](C(=O)N[C@@H](CCCNC(=N)N)C(=O)N[C@H](C(=O)NCC(=O)N[C@@H](CC(C)C)C(=O)N[C@@H](CC(C)C)C(=O)N[C@@H](CCCNC(=N)N)C(N)=O)[C@@H](C)CC)C(C)C [Compound 111] (Pentanoyl-WNLVRIGLLR-NH2) |  | > 50 |  |  | > 50 | 4.9
16 | CCCCC(=O)N[C@@H](Cc1c[nH]c2ccccc12)C(=O)N[C@@H](CC(N)=O)C(=O)N[C@@H](CC(C)C)C(=O)N[C@H](C(=O)N[C@@H](CCCNC(=N)N)C(=O)N[C@H](C(=O)NCC(=O)N[C@H](C(=O)N[C@H](C(=O)N[C@@H](CCCNC(=N)N)C(N)=O)[C@@H](C)O)[C@@H](C)O)[C@@H](C)CC)C(C)C [Compound 113] (Pentanoyl-WNLVRIGTTR-NH2) |  | > 50 |  |  | > 50 | > 50
17 | CCCCC(=O)N[C@@H](Cc1c[nH]c2ccccc12)C(=O)N[C@@H](CC(N)=O)C(=O)N[C@@H](CC(C)C)C(=O)N[C@H](C(=O)N[C@@H](CCCNC(=N)N)C(=O)N[C@H](C(=O)NCC(=O)N[C@H](C(=O)N[C@@H](CC(C)C)C(=O)N[C@@H](CCCNC(=N)N)C(N)=O)[C@@H](C)O)[C@@H](C)CC)C(C)C [Compound 114] (Pentanoyl-WNLVRIGTLR-NH2) |  | > 50 |  |  | > 50 | > 50
